Converted amounts (≈) assume the structure as drawn.
Assays:
[1] = tested on: MCF7; experiment: Cytotoxicity against human MCF7 cells; assay type: functional, cell-based
[2] = tested on: Hep 3B2; experiment: Cytotoxicity against human Hep3B cells; assay type: functional, cell-based
[3] = tested on: HeLa; experiment: Cytotoxicity against human HeLa cells; assay type: functional, cell-based
[4] = tested on: COLO 205; experiment: Antiproliferative activity against human COLO 205 cells; assay type: functional, cell-based
[5] = tested on: A549; experiment: Antiproliferative activity against human A549 cells incubated for 72 hrs by MTT assay; assay type: functional, cell-based; settings: A549, 72 h
[6] = tested on: PANC-1; experiment: Antiproliferative activity against human PANC-1 cells incubated for 72 hrs by MTT assay; assay type: functional, cell-based; settings: PANC-1, 72 h
[7] = tested on: MDA-MB-231; experiment: Antiproliferative activity against human MDA-MB-231 cells incubated for 72 hrs by MTT assay; assay type: functional, cell-based; settings: MDA-MB-231, 72 h
[8] = tested on: T98G; experiment: Antiproliferative activity against human T98G cells incubated for 72 hrs by MTT assay; assay type: functional, cell-based
[9] = tested on: Hs 683; experiment: Antiproliferative activity against human Hs 683 cells incubated for 72 hrs by MTT assay; assay type: functional, cell-based; settings: Hs 683, 72 h
[10] = tested on: LoVo; experiment: Cytotoxicity against human LoVo cells; assay type: functional, cell-based
[11] = tested on: KB; experiment: Cytotoxicity against human KB cells; assay type: functional, cell-based
[12] = Cytotoxicity against mouse J558 cells assessed as growth inhibition measured upto 48 hrs by CCK-8 assay; assay type: functional, cell-based; settings: J558, 48 h
[13] = tested on: Ramos; experiment: Cytotoxicity against human Ramos RA.1 cells assessed as growth inhibition measured upto 48 hrs by CCK-8 assay; assay type: functional, cell-based
[14] = tested on: T47D; experiment: Antiproliferative activity against human T47D cells assessed as cell viability incubated for 24 hrs by MTT assay; assay type: functional, cell-based
[15] = tested on: NCI-H460; experiment: Antiproliferative activity against human NCI-H460 cells assessed as cell viability incubated for 48 hrs by MTT assay; assay type: functional, cell-based; settings: NCI-H460, 48 h
[16] = tested on: HCT-116; experiment: Antiproliferative activity against human HCT-116 cells assessed as cell viability incubated for 24 hrs by MTT assay; assay type: functional, cell-based; settings: HCT-116, 24 h
[17] = tested on: T47D; experiment: Antiproliferative activity against human T47D cells assessed as cell viability incubated for 48 hrs by MTT assay; assay type: functional, cell-based
[18] = tested on: NCI-H460; experiment: Antiproliferative activity against human NCI-H460 cells assessed as cell viability incubated for 24 hrs by MTT assay; assay type: functional, cell-based; settings: NCI-H460, 24 h
[19] = Cytotoxicity against human Pancreatic cancer cell measured after 72 hrs by MTT assay; assay type: functional, cell-based
[20] = tested on: Breast carcinoma cell; experiment: Cytotoxicity against human Breast cancer cell line measured after 72 hrs by MTT assay; assay type: functional, cell-based
[21] = tested on: HCT-116; experiment: Cytotoxicity against human HCT-116 cells; assay type: functional, cell-based
[22] = tested on: SR; experiment: Cytotoxicity against human SR cells; assay type: functional, cell-based
[23] = tested on: RPMI-8226; experiment: Cytotoxicity against human RPMI-8226 cells; assay type: functional, cell-based
[24] = tested on: HCT-15; experiment: Cytotoxicity against human HCT-15 cells; assay type: functional, cell-based
[25] = tested on: NCI-H460; experiment: Cytotoxicity against human NCI-H460 cells; assay type: functional, cell-based
[26] = tested on: A549; experiment: Cytotoxicity against human A549 cells; assay type: functional, cell-based
[27] = tested on: Malme-3M; experiment: Cytotoxicity against human Malme-3M cells; assay type: functional, cell-based
[28] = tested on: OVCAR-3; experiment: Cytotoxicity against human OVCAR-3 cells; assay type: functional, cell-based
[29] = tested on: 1A9; experiment: Cytotoxicity against human 1A9 cells by SRB assay; assay type: functional, cell-based
[30] = tested on: MCF7; experiment: Cytotoxicity against human MCF7 cells by SRB assay; assay type: functional, cell-based
[31] = tested on: KB; experiment: Cytotoxicity against human KB cells by SRB assay; assay type: functional, cell-based
[32] = tested on: SK-MEL-2; experiment: Cytotoxicity against human SK-MEL-2 cells by SRB assay; assay type: functional, cell-based
[33] = tested on: A549; experiment: Cytotoxicity against human A549 cells by SRB assay; assay type: functional, cell-based
[34] = Cytotoxicity against human U-87 MG cells by SRB assay; assay type: functional, cell-based, U-87MG ATCC
[35] = tested on: SAOS-2; experiment: Cytotoxicity against human SAOS-2 cells by SRB assay; assay type: functional, cell-based
[36] = tested on: HL-60(TB); experiment: Antiproliferative activity against human HL-60(TB) cells; assay type: functional, cell-based
[37] = tested on: PC-3; experiment: Antitumor activity against human PC-3 cells assessed as inhibition of cell growth measured after 48 hrs by spectrophotometric analysis; assay type: functional, cell-based; settings: PC-3, 48 h
[38] = tested on: MCF7; experiment: Antitumor activity against human MCF7 cells assessed as inhibition of cell growth measured after 48 hrs by spectrophotometric analysis; assay type: functional, cell-based; settings: MCF7, 48 h
[39] = tested on: NCI-H460; experiment: Antitumor activity against human NCI-H460 cells assessed as inhibition of cell growth measured after 48 hrs by spectrophotometric analysis; assay type: functional, cell-based; settings: NCI-H460, 48 h
[40] = tested on: HaCaT; experiment: Antitumor activity against human HaCaT cells assessed as inhibition of cell growth measured after 48 hrs by spectrophotometric analysis; assay type: functional, cell-based
[41] = tested on: U-251; experiment: Antitumor activity against human U-251 cells assessed as inhibition of cell growth measured after 48 hrs by spectrophotometric analysis; assay type: functional, cell-based; settings: U-251, 48 h
[42] = tested on: 786-0; experiment: Antitumor activity against human 786-0 cells assessed as inhibition of cell growth measured after 48 hrs by spectrophotometric analysis; assay type: functional, cell-based; settings: 786-0, 48 h
[43] = tested on: NCI/ADR-RES; experiment: Antitumor activity against human NCI-ADR-RES cells assessed as inhibition of cell growth measured after 48 hrs by spectrophotometric analysis; assay type: functional, cell-based
[44] = tested on: OVCAR-3; experiment: Antitumor activity against human OVCAR-3 cells assessed as inhibition of cell growth measured after 48 hrs by spectrophotometric analysis; assay type: functional, cell-based; settings: OVCAR-3, 48 h
[45] = tested on: HT-29; experiment: Antitumor activity against human HT-29 cells assessed as inhibition of cell growth measured after 48 hrs by spectrophotometric analysis; assay type: functional, cell-based; settings: HT-29, 48 h
[46] = tested on: HL-60; experiment: Cytotoxicity against human HL-60 cells; assay type: functional, cell-based; settings: hl-60
[47] = Cytotoxicity against human BGC cells; assay type: functional, cell-based

`CCCCCCCCCCCCCCCCCCCCCCCC(=O)N1CCc2c([nH]c3ccc(O)cc23)[C@H]1Cc1ccc(O)cc1` showed an IC50 [1] of under 2 µM, an IC50 [2] of under 2 µM and an IC50 [3] of under 2 µM.

`CC(C)(C)OC(=O)n1cc(C/C=C(\c2cn(C(=O)OC(C)(C)C)c3ccccc23)C2NCCc3c2[nH]c2ccccc32)c2ccccc21` (configuration not stated) showed an IC50 [4] of 2.7 µM.

`CCCn1c2cc(OCCC(C)C)ccc2c2cc[n+](Cc3ccccn3)c(C)c21` showed an IC50 [5] of 0.2 µM, an IC50 [6] of 0.2 µM and an IC50 [7] of 0.2 µM. For the same molecule, the IC50 [8] was 0.2 µM and the IC50 [9] was 0.2 µM.

`Oc1cccc2c1[nH]c1c(C3=C[C@@]4(O)CC/C=C\CCCCN5CC[C@@H]3[C@]3(C[C@@H]6/C=C\CCCCN6[C@H]34)C5)nccc12` showed an IC50 [10] of 0.26 µg/mL (≈ 0.46 µM) and an IC50 ([11]; Homo sapiens, KB, read-out: IC50) of 0.3 µg/mL.

`CCCCn1c2ccccc2c2cc[n+](Cc3ccc(F)cc3)c(-c3ccccc3Cl)c21` showed an IC50 [12] of 8.02 µM and an IC50 [13] of 9.08 µM.

Molecule `Cc1nccc2c3ccccc3n(CCCCn3c4ccccc4c4ccnc(C)c43)c12` has an IC50 [14] of 9.88 µM, an IC50 [15] of 9.58 µM and an IC50 [16] of 5.09 µM. It also gave an IC50 [17] of 8.22 µM and an IC50 [18] of 10.9 µM.

With `COc1ccc2[nH]c3c(-c4cccc5ccccc45)nccc3c2c1` the IC50 [19] was 0.38 µM and the IC50 [20] was 0.39 µM.

With `O=C(Cn1c2ccccc2c2ccncc21)N/N=C/c1cccc2ccccc12` the IC50 [21] was 3.5 µM, the IC50 [22] was 6.3 µM and the IC50 [23] was 7.8 µM.

Molecule `COc1ccc(OC)c(-c2nc(/C=C3/C(=O)N(Cc4ccccc4)c4ccc(Br)cc43)cc3c2[nH]c2ccccc23)c1` has an IC50 [24] of 1.43 µM, an IC50 [1] of 1.43 µM and an IC50 [21] of 1.43 µM. It also gave an IC50 [25] of 1.43 µM and an IC50 [26] of 1.43 µM.

With `O=C1c2ccccc2-[n+]2ccc3c([nH]c4ccccc43)c21` [FASCAPLYSIN] the IC50 [1] was 0.14 µg/mL, the IC50 [27] was 0.03 µg/mL and the IC50 [28] was 0.16 µg/mL. It also gave an IC50 [26] of 0.38 µg/mL.

Work on `COc1ccc2c(c1)[nH]c1c(/C=C/c3ccc([N+](=O)[O-])cc3)nccc12` yielded an IC50 [29] of 0.3 µg/mL (≈ 0.869 µM), an IC50 [30] of 0.3 µg/mL (≈ 0.869 µM) and an IC50 [31] of 0.3 µg/mL (≈ 0.869 µM). For the same molecule, the IC50 [32] was 0.3 µg/mL (≈ 0.869 µM), the IC50 [33] was 0.3 µg/mL (≈ 0.869 µM) and the IC50 [34] was 0.3 µg/mL (≈ 0.869 µM). It also gave an IC50 [35] of 0.3 µg/mL (≈ 0.869 µM).

`COc1ccc2[nH]cc(-c3nccc4c3[nH]c3ccc(OC)cc34)c2c1` gave an IC50 [36] of 4.2 µM.

`c1ccc(-c2nc(-c3nnc4snnn34)cc3c2[nH]c2ccccc23)cc1` gave an IC50 [37] of 0.08 µM, an IC50 [38] of 0.08 µM and an IC50 [39] of 0.08 µM. The IC50 [40] was 0.08 µM, the IC50 [41] was 0.08 µM and the IC50 [42] was 0.08 µM. For the same molecule, the IC50 [43] was 0.08 µM, the IC50 [44] was 0.08 µM and the IC50 [45] was 0.08 µM.

`NCCCCNC(=O)c1cc2c(cn1)[nH]c1ccccc12` showed an IC50 [46] of 8.6 µM, an IC50 [47] of 8.6 µM and an IC50 ([11]; kb) of 8.6 µM.

— ChEMBL document CHEMBL5241090, “A comprehensive overview of β-carbolines and its derivatives as anticancer agents” (Eur J Med Chem, 2021)
